The record followed here is patent US20100216699A1, “SEMI-SYNTHETIC GLYCOPEPTIDES HAVING ANTIBACTERIAL ACTIVITY” (LEAD THERAPEUTICS, INC., priority 2009, published 2010).

Holding throughout (format): cell-based
In test [1] the test system is Enterococcus faecium 750 (vancomycin sensitive). Kind of test: MIC by broth microdilution, EFCM 750. The following applies: read-out: MIC EFCM 750. From the text:
(§1) As used herein, the term “minimum inhibitory concentration” (MIC) refers to the lowest concentration of an antibiotic that is needed to inhibit growth of a bacterial isolate in vitro. A common method for determining the MIC of an antibiotic is to prepare several tubes containing serial dilutions of the antibiotic, that are then inoculated with the bacterial isolate of interest.
(§2) Antibacterial activity in vitro is investigated by broth microdilution method in Meuller-Hinton broth as recommended by NCCLS. All strains tested are clinical isolates either sensitive or resistant to natural glycopeptides. MIC values were determined using the CLSI-recommended broth microdilution procedure (Clinical and Laboratoratory Standards Institute, Methods for Dilution Antimicrobial Susceptibility Tests for Bacteria That Grow Aerobically; Approved Standard-Seventh Edition.). Automated liquid handlers (Multidrop 384, Labsystems, Helsinki, Finland; Biomek 2000 and Multimek 96, Beckman Coulter, Fullerton Calif.) were used to conduct serial dilutions and liquid transfers.
(In general: Broth dilution looks for growth in wells or tubes with falling amounts of substance.)

The subject of test [2] is Staphylococcus aureus 100 (MSSA). Kind of test: MIC by broth microdilution, SA 100. The following applies: read-out: MIC SA 100.
Source text: as §1, §2

Test [3] concerns Streptococcus pyogenes 712 (penicillin sensitive). In words: MIC by broth microdilution, SPYO 712. The following applies: read-out: MIC SPYO 712.
Source text: as §1, §2

For test [4], the system named is Enterococcus faecium 752 (VRE). Kind of test: MIC by broth microdilution, EFCM 752. The settings on record: read-out: MIC EFCM 752.
Source text: as §1, §2

Test [5] deals with Staphylococcus epidermidis 835 (MSSE). Kind of test: MIC by broth microdilution, SE 835. The settings on record: read-out: MIC SE 835.
Source text: as §1, §2

The test system of test [6] is Streptococcus pneumoniae 1195 (penicillin sensitive). In words: MIC by broth microdilution, SPNE 1195. The following applies: read-out: MIC SPNE 1195.
Source text: as §1, §2

Test [7] relates to Enterococcus faecalis 848 (VRE). Kind of test: MIC by broth microdilution, EFC 848. The settings on record: read-out: MIC EFC 848.
Source text: as §1, §2

The test system of test [8] is Enterococcus faecalis 101 (vancomycin sensitive). In words: MIC by broth microdilution, EFC 101. The settings on record: read-out: MIC EFC 101.
Source text: as §1, §2

The subject of test [9] is Staphylococcus aureus 757 (MRSA). In words: MIC by broth microdilution, SA 757. The following applies: read-out: MIC SA 757.
Source text: as §1, §2

Test [10] relates to Staphylococcus aureus 2012 (VISA). Kind of test: MIC by broth microdilution, SA 2012. The settings on record: read-out: MIC SA 2012.
Source text: as §1, §2

Test [11] has as its system Staphylococcus epidermidis 831 (MRSE). In words: MIC by broth microdilution, SE 831. The following applies: read-out: MIC SE 831.
Source text: as §1, §2

Converted amounts (≈) assume the structure as drawn. Where two headings read alike, the source gives them in different places. Where only a bound is given, the exact number is not on record here.

What is called MIC is the lowest concentration found to suppress growth. As to `CCCCCCCCNC(=O)NC(=O)C[C@@H]1NC(=O)[C@H](NC(=O)[C@@H](CC(C)C)NC)[C@H](O)c2ccc(c(Cl)c2)Oc2cc3cc(c2O)Oc2ccc(cc2Cl)[C@@H](O)[C@H]2NC(=O)[C@H](NC(=O)[C@@H]3NC1=O)c1ccc(O)c(c1)-c1c(O)cc(O)cc1[C@@H](C(=O)NC1C3CC4CC(C3)CC1C4)NC2=O` (stereo partly shown) [Compound 23], the MIC is 1 µg/mL (≈ 0.698 µM) in test [1] (Enterococcus faecium 750 (vancomycin sensitive), clinical isolate, Mueller-Hinton broth); 2 µg/mL (≈ 1.4 µM) in [2] (Staphylococcus aureus 100 (MSSA), clinical isolate, Mueller-Hinton broth); 0.25 µg/mL (≈ 0.175 µM) in [3] (Streptococcus pyogenes 712 (penicillin sensitive), clinical isolate, Mueller-Hinton broth); 2 µg/mL (≈ 1.4 µM) in [4] (Enterococcus faecium 752 (VRE), clinical isolate, Mueller-Hinton broth); 2 µg/mL (≈ 1.4 µM) in test [5] (Staphylococcus epidermidis 835 (MSSE), clinical isolate, Mueller-Hinton broth); 0.5 µg/mL (≈ 0.349 µM) in [6] (Streptococcus pneumoniae 1195 (penicillin sensitive), clinical isolate, Mueller-Hinton broth). Moreover, the MIC in test [7] (Enterococcus faecalis 848 (VRE), clinical isolate, Mueller-Hinton broth) came to 2 µg/mL (≈ 1.4 µM); in test [8] (Enterococcus faecalis 101 (vancomycin sensitive), clinical isolate, Mueller-Hinton broth) it was 2 µg/mL (≈ 1.4 µM); in test [9] (Staphylococcus aureus 757 (MRSA), clinical isolate, Mueller-Hinton broth), 2 µg/mL (≈ 1.4 µM); in test [10] (Staphylococcus aureus 2012 (VISA), clinical isolate, Mueller-Hinton broth) it was 2 µg/mL (≈ 1.4 µM); in test [11] (Staphylococcus epidermidis 831 (MRSE), clinical isolate, Mueller-Hinton broth), 1 µg/mL (≈ 0.698 µM).
Consider `CN[C@H](CC(C)C)C(=O)N[C@H]1C(=O)N[C@@H](CC(N)=O)C(=O)N[C@H]2C(=O)N[C@H]3C(=O)N[C@H](C(=O)N[C@H](C(=O)O)c4cc(O)cc(O)c4-c4cc3ccc4O)[C@H](O)c3ccc(c(Cl)c3)Oc3cc2cc(c3O[C@@H]2O[C@H](CO)[C@@H](O)[C@H](O)[C@H]2O[C@H]2C[C@](C)(N)[C@H](O)[C@H](C)O2)Oc2ccc(cc2Cl)[C@H]1O` [Vancomycin, vancomycin], for which the MIC is 1 µg/mL (≈ 0.69 µM) in test [1] (Enterococcus faecium); 1 µg/mL (≈ 0.69 µM) in [2] (Staphylococcus aureus, MSSA); 0.5 µg/mL (≈ 0.345 µM) in test [3] (Streptococcus pyogenes); more than 64 µg/mL in test [4] (Enterococcus faecium, VRE); 2 µg/mL (≈ 1.38 µM) in [5] (Staphylococcus epidermidis); 0.25 µg/mL (≈ 0.173 µM) in [6] (Streptococcus pneumoniae). The MIC in test [7] (Enterococcus faecalis, VRE) was more than 64 µg/mL; in test [8] (Enterococcus faecalis), 2 µg/mL (≈ 1.38 µM); in [9] (Staphylococcus aureus, MRSA) it was 1 µg/mL (≈ 0.69 µM); in test [10] (Staphylococcus aureus, VISA), 8 µg/mL (≈ 5.52 µM); in [11] (Staphylococcus epidermidis, MRSE), 2 µg/mL (≈ 1.38 µM).
